For orientation: IC50 means the midpoint of a concentration-inhibition curve. The low end stands for greater potency in that assay, the high end for weaker potency in that assay.

Consider 5 molecules from patent US12398141B2 (SHANGHAI SYNERGY PHARMACEUTICAL SCIENCES CO., LTD, priority 2019, dated 2025).

One data set has as its system Sprague-Dawley (SD) mice. The data set can be described thus: Concanavalin-induced paw swelling in mice. The format is in vivo. Particulars: 10 mg/kg intragastric; for Paw swelling rate_1 h (%): 1 h; for Paw swelling rate_2 h (%): 2 h; for Paw swelling rate_4 h (%): 4 h; for Paw swelling rate_6 h (%): 6 h. In a few lines:
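SD […], 6-7 weeks, 160-180 g, dosed intragastrically with compound in 4% Tween 80/0.5% HPMC. 0.5 h later, 0.1 ml 0.03% concanavalin injected subcutaneously into the plantar. Paw volume measured before modeling and at 1, 2, 4 and 6 h; swelling rate expressed as percent change from pre-dose volume.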

Data set [1] can be described thus: Pharmacokinetic test after intragastric administration. Particulars: Sprague-Dawley, mouse, plasma, po, SD mice, 5 mg/kg intragastric; for AUC(0-t): read-out: Area under the curve (AUC0-24, ng/ml · h); for Cmax: read-out: Plasma concentration (Cmax, ng/ml); for half-life: read-out: half life (T1/2, h) (converted). It is filed as in vivo. As to the method: Drug concentrations of compounds H01, H07, H11, H12, H14, H15, H22, H25, H29, H30, H33, H39 and H44 intragastrically administrated in plasma by using LC/MS/MS method at various time points were determined by using Sprague-Dawley (SD) […], aged 7-8 weeks and weighing […] as test animals. Pharmacokinetic behavior of the compounds of the invention in […] was studied and its pharmacokinetic characteristics were evaluated.
A certain amount of compounds was taken and dissolved in 50% PEG400/water to prepare a uniform solution.
Mice were administered intragastrically with the above compounds with a dosage of 5 mg/kg. Blood (0.2 ml) was taken from orbits before administration and 0.083 h, 0.25 h, 0.5 h, 1.0 h, 2.0 h, 4.0 h, 6.0 h, 8.0 h, 12.0 h and 24.0 h after administration. The blood was placed in anticoagulant tubes containing dipotassium ethylene glycol diethyl ether diamine tetraacetic acid, centrifugated at 6000 rpm at 4° C. for 10 minutes to separate plasma and saved at −80° C.
50 μL plasma at various time was taken and 150 μL acetonitrile solution containing internal standard tolbutamide (Sigma, USA) was added, mixed and stirred for 5 minutes. After centrifugation for 5 minutes at 12,000 rpm, 100 μL supernatant was taken, mixed with 200 μL water, following by sample injection and analysis.
Liquid chromatogram system was LC-20AD UFLC High Performance Liquid Chromatography system. Mass spectrum system was AB Sciex API4000 triple quadrupole mass spectrometer equipped with Electron Spray Ionization (ESI) (Applied Biosystems, Canada). A software for controlling liquid chromatography-mass spectrometry and quantitative analysis was Anna Rust 1.6 (Applied Biosystems, Canada). Pharmacokinetic parameters were analyzed by WinNonlin (version 5.2, Pharsight, Mountain View, […]) non-compartment model.
The test compound was dissolved in dimethyl sulfoxide to prepare a stock solution with a concentration of 1 mg/mL. The solution was diluted with 50% acetonitrile to obtain a series of standard working solutions with concentrations of 10 μg/mL, 3 μg/mL, 1 μg/mL, 0.3 μg/mL, 0.1 μg/mL, 0.03 μg/mL and 0.01 μg/mL, and a series of standard quality control solutions with concentrations of 8 μg/mL, 0.5 μg/mL, 0.03 μg/mL. 5 μL standard solution was mixed with 45 μL blank plasma substrate uniformly to obtain standard solutions of each concentration of a standard curve (1000 ng/mL, 500 ng/mL, 200 ng/mL, 100 ng/mL, 10 ng/mL, 5 ng/mL, 2 and 1 ng/mL) and quality control solutions (plasma samples: 800 ng/mL, 50 and 3 ng/mL).
Internal standard tolbutamide solid powder was dissolved in dimethyl sulfoxide to prepare a 1 mg/mL stock solution. The stock solution was diluted with 100% acetonitrile to obtain 200 ng/mL solution as a protein precipitation solution.

The subject of another data set is male ICR mice. Briefly: Carrageenan-induced paw swelling in mice. Particulars: 10 mg/kg intragastric; for Paw swelling_0.5 h (%): 0.5 h; for Paw swelling rate_1 h (%): 1 h; for Paw swelling rate_2 h (%): 2 h. It is filed as in vivo. An outline of the steps: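 Compounds in 4% Tween 80/0.5% HPMC given intragastrically at 10 mg/kg (10 ml/kg); 0.5 h later 20 μL 1% carrageenan injected into the plantar. Paw volume measured before and at 0.5, 1 and 2 h; swelling rate expressed relative to baseline paw volume.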

A further data set deals with TF-1 cell. The data set can be described thus: TF-1 cell proliferation test. It is filed as cell-based. Particulars: Homo sapiens, 72 h.

For the molecule `COc1nsc(NC(=O)N[C@H]2C[C@@H](N(C)c3c(C#N)cnc4[nH]ccc34)C2)n1` [Compound H29, (cis)-1-(3-((5-cyano-1H-pyrrolo[2,3-b]pyridin-4-yl)(methyl)amino)cyclobutyl)-3-(3-methoxy-1,2,4-thiadiazole-5-yl)urea], in the data set with Sprague-Dawley (SD) mice, the “Paw swelling rate_1 h (%)” value is recorded as 23.70 ± 1.60%, the “Paw swelling rate_2 h (%)” value was 23.20 ± 2.60%, the “Paw swelling rate_4 h (%)” value was found to be 32.20 ± 3.50% and the “Paw swelling rate_6 h (%)” value worked out at 29.20 ± 3.50%. For the same molecule, in data set [1], the AUC(0-t) was 1530 ± 176 ng·h/mL, the Cmax worked out at 522 ± 23 ng/mL and the half-life is 4.43 ± 0.32 h. Moreover, in the data set on male ICR mice, the “Paw swelling_0.5 h (%)” value amounted to 33.03 ± 4.23%, the “Paw swelling rate_1 h (%)” value is reported as 41.65 ± 2.21% and the “Paw swelling rate_2 h (%)” value was determined as 40.10 ± 4.32%. For the same molecule, in the data set with TF-1 cell, the IC50 came out at 0.87 µM.

Turning to `CC(C)c1nsc(NC(=O)N2C[C@H]3C[C@H](N(C)c4c(C#N)cnc5[nH]ccc45)C[C@H]3C2)n1` [Compound H30, (3aR,5s,6aS)-4-({2-[(3-isopropyl-1,2,4-thiadiazole-5-yl)carbamoyl]-hexahydrocyclopenta[c]pyrrole-5-yl}-methyl-amino)-1H-pyrrolo[2,3-b]pyridin-5-carbonitrile], in the data set with Sprague-Dawley (SD) mice, the “Paw swelling rate_1 h (%)” value came out at 24.40 ± 2.40%, the “Paw swelling rate_2 h (%)” value is listed as 25.20 ± 3.40%, the “Paw swelling rate_4 h (%)” value was 26.00 ± 2.30% and the “Paw swelling rate_6 h (%)” value is on record as 24.50 ± 2.30%. In data set [1], the AUC(0-t) amounted to 923 ± 263 ng·h/mL, the Cmax came out at 433 ± 16 ng/mL and the half-life was 2.47 ± 0.46 h. Moreover, in the data set with male ICR mice, the “Paw swelling_0.5 h (%)” value was determined as 33.12 ± 1.38%, the “Paw swelling rate_1 h (%)” value is recorded as 43.43 ± 2.12% and the “Paw swelling rate_2 h (%)” value was 44.52 ± 4.37%. Also, 1.23 µM corresponded to half-maximal inhibition with TF-1 cell (IC50).

With `CN(C)c1nsc(NC(=O)N2C[C@H]3C[C@H](N(C)c4c(C#N)cnc5[nH]ccc45)C[C@H]3C2)n1` [Compound H33, (3aR,5s,6aS)-4-({2-[(3-dimethylamino-1,2,4-thiadiazole-5-yl)carbamoyl]-hexahydrocyclopenta[c]pyrrole-5-yl}-methyl-amino)-1H-pyrrolo[2,3-b]pyridin-5-carbonitrile], in the data set with Sprague-Dawley (SD) mice, the “Paw swelling rate_1 h (%)” value was determined as 27.80 ± 2.00%, the “Paw swelling rate_2 h (%)” value came to 29.20 ± 3.10%, the “Paw swelling rate_4 h (%)” value was 30.10 ± 2.90% and the “Paw swelling rate_6 h (%)” value is listed as 30.10 ± 2.90%. In data set [1], the AUC(0-t) is 1820 ± 173 ng·h/mL, the Cmax came to 440 ± 89 ng/mL and the half-life was 8.64 ± 0.23 h. Also, in the data set on male ICR mice, the “Paw swelling_0.5 h (%)” value is given as 30.78 ± 2.62%, the “Paw swelling rate_1 h (%)” value is listed as 31.76 ± 1.86% and the “Paw swelling rate_2 h (%)” value is 41.75 ± 5.67%. The IC50 in the data set with TF-1 cell amounted to 1.1 µM.

For the molecule `N#Cc1cnc2[nH]ccc2c1N1CC2CN(C(=O)NCC(F)(F)F)CC21` (stereo not shown) [Compound H39, 6-(5-cyano-1H-pyrrolo[2,3-b]pyridin-4-yl)-N-(2,2,2-trifluoroethyl)-3,6-diazabicyclo[3.2.0]heptane-3-carboxamide], in the data set on Sprague-Dawley (SD) mice, the “Paw swelling rate_1 h (%)” value was 31.10 ± 2.30%, the “Paw swelling rate_2 h (%)” value was 25.60 ± 4.00%, the “Paw swelling rate_4 h (%)” value came to 26.30 ± 3.30% and the “Paw swelling rate_6 h (%)” value worked out at 25.30 ± 3.30%. Also, in data set [1], the AUC(0-t) came to 1560 ± 230 ng·h/mL, the Cmax amounted to 574 ± 64 ng/mL and the half-life is 4.65 ± 0.15 h. Further, in the data set on male ICR mice, the “Paw swelling_0.5 h (%)” value is 30.45 ± 1.74%, the “Paw swelling rate_1 h (%)” value stood at 26.44 ± 3.68% and the “Paw swelling rate_2 h (%)” value turned out to be 38.99 ± 5.58%. In the data set with TF-1 cell, this molecule had an IC50 of 0.69 µM.

With `CN(c1c(C#N)cnc2[nH]ccc12)[C@H]1C[C@@H]2CN(C(=O)Nc3nc(OCC(C)(C)N)ns3)C[C@@H]2C1` [Compound H44, (3aR,5s,6aS)-5-((5-cyano-1H-pyrrolo[2,3-b]pyridin-4-yl)(methyl)amino)-N-(3-(2-amino-2-methyl-propoxy)-1,2,4-thiadiazole-5-yl)hexahydrocyclopentadiene[c]pyrrole-2(1H)-carboxamide], in the data set on Sprague-Dawley (SD) mice, the “Paw swelling rate_1 h (%)” value was determined as 23.80 ± 1.60%, the “Paw swelling rate_2 h (%)” value stood at 24.80 ± 2.50%, the “Paw swelling rate_4 h (%)” value is reported as 24.20 ± 2.90% and the “Paw swelling rate_6 h (%)” value worked out at 23.50 ± 2.90%. For the same molecule, in data set [1], the AUC(0-t) was found to be 1680 ± 120 ng·h/mL, the Cmax is 619 ± 39 ng/mL and the half-life was 4.17 ± 0.45 h. Also, in the data set with male ICR mice, the “Paw swelling_0.5 h (%)” value is on record as 31.03 ± 2.43%, the “Paw swelling rate_1 h (%)” value worked out at 42.65 ± 2.21% and the “Paw swelling rate_2 h (%)” value worked out at 41.56 ± 3.32%. Also, the IC50 in the data set on TF-1 cell turned out to be 0.73 µM.
